In patent US20030060463A1, “Preparation of topical regional compositions for the relief of pain” (priority 1995, published 2003):
Read-outs that look alike come from different tables or passages of the source.

System: pain due to nerve injury (SMP)
Format: in vivo, human
Description: The purpose of this study was to evaluate and compare the safety and efficacy in the application of five topical compositions prepared with three active ingredients and applied singly or in combinations for the purpose of relief of sympathetically mediated pain (SMP).
The study size was a total of thirty four volunteer subjects; fifteen female and nineteen male volunteer subjects. Their ages ranged from 29 to 84 with a mean of 52 years of age. All subjects were diagnosed with severe sympathetically mediated pain.
Three different therapeutically active agents were utilized, alone or in combination, in preparations of lecithin matrix gels.
A different composition was applied each treatment day to the area of maximum pain. The patients were asked to indicate the level of their pain immediately prior to the application of the compositions, and then at intervals of 5, 10, 15 minutes, 1, 2 and 3 hours after receiving treatment. Pain intensity was measured using the scale below.
SIGNIFICANT PAIN RELIEF WAS DEFINED AS >50% PAIN RELIEF SUSTAINED GREATER THAN 2 HOURS. For example, if a given patient rated their pain immediately prior to application of the compositions as “very intense”, they would get a 1.8 score per the scale. […]

SMILES | Safety and efficacy in clinical trials at other dosages (human, in vivo) | Safety and efficacy in clinical trials at other dosages (dosage between 0.05% to 2% of the topical composition)
CN(C)CCC=C1c2ccccc2CCc2ccccc21 [amitriptylline] | safe and effective | –
CNC1(c2ccccc2Cl)CCCCC1=O (centres unmarked) [ketamine] | – | safe and effective
